In US12172995B2, “Substituted indole and indazole compounds” (BRISTOL-MYERS SQUIBB COMPANY, priority 2018, dated 2024):

Tests used:
Assay type in all cases: cell-based
human TLR7 = molecular target: T1, human TLR7 (Homo sapiens, UniProt Q9NYK1); assay: TLR7 inhibition reporter assay (HEK-Blue SEAP); settings: HEK-Blue cells overexpressing human TLR7, stimulated with gardiquimod 7.5 μM, 22 hour incubation
T1 construct: host or cells: HEK-Blue cells
T1 sequence (Q9NYK1 27-1049): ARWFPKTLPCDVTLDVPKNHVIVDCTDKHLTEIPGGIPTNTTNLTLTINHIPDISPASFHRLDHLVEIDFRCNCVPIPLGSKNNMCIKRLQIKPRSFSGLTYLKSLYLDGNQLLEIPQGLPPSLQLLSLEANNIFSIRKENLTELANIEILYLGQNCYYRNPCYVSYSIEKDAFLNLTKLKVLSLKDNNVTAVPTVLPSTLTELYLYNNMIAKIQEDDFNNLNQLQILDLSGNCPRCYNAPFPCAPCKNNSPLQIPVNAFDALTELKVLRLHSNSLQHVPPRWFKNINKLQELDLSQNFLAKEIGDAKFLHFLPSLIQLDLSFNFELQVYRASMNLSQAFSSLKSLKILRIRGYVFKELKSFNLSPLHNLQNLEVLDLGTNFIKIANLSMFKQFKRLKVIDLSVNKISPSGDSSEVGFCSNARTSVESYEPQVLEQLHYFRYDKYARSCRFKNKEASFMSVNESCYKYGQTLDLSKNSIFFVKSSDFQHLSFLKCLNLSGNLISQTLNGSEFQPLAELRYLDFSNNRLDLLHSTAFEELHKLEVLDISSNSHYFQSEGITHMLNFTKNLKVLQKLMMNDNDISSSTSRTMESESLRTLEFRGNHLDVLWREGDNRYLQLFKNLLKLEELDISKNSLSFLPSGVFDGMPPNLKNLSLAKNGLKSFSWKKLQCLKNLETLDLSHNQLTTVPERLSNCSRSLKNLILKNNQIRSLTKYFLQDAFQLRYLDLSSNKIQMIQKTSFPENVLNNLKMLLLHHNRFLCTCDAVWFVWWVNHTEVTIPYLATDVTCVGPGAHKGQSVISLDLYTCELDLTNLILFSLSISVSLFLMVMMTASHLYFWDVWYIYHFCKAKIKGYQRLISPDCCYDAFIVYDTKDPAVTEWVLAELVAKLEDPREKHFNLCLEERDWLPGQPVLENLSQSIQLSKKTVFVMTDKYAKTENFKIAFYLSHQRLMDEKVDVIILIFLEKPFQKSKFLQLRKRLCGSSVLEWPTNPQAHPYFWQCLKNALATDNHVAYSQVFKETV
Experimental: (§1) TLR7/8/9 Inhibition Reporter Assays
(§2) HEK-Blue™-cells (Invivogen) overexpressing human TLR7, TLR8 or TLR9 receptors were used for screening inhibitors of these receptors using an inducible SEAP (secreted embryonic alkaline phosphatase) reporter gene under the control of the IFN-β minimal promoter fused to five NF-κB and AP-1-binding sites. Briefly, cells are seeded into Greiner 384 well plates (15000 cells per well for TLR7, 20,000 for TLR8 and 25,000 for TLR9) and then treated with test compounds in DMSO to yield a final dose response concentration range of 0.05 nM to 50 μM. After a 30 minute compound pre-treatment at room temperature, the cells are then stimulated with a TLR7 ligand (gardiquimod at a final concentration of 7.5 μM), TLR8 ligand (R848 at a final concentration of 15.9 μM) or TLR9 ligand (ODN2006 at a final concentration of 5 nM) to activate NF-κB and AP-1 which induce the production of SEAP. After a 22 hour incubation at 37° C., 5% CO2, SEAP levels are determined with the addition of HEK-Blue™ Detection reagent (Invivogen), a cell culture medium that allows for detection of SEAP, according to manufacturer's specifications. The percent inhibition is determined as the % reduction in the HEK-Blue signal present in wells treated with agonist plus DMSO alone compared to wells treated with a known inhibitor.

human TLR8 = molecular target: T2, human TLR8 (Homo sapiens, UniProt Q9NR97); assay: TLR8 inhibition reporter assay (HEK-Blue SEAP); settings: HEK-Blue cells overexpressing human TLR8, stimulated with R848 15.9 μM, 22 hour incubation
T2 construct: host or cells: HEK-Blue cells
T2 sequence (Q9NR97 27-1041): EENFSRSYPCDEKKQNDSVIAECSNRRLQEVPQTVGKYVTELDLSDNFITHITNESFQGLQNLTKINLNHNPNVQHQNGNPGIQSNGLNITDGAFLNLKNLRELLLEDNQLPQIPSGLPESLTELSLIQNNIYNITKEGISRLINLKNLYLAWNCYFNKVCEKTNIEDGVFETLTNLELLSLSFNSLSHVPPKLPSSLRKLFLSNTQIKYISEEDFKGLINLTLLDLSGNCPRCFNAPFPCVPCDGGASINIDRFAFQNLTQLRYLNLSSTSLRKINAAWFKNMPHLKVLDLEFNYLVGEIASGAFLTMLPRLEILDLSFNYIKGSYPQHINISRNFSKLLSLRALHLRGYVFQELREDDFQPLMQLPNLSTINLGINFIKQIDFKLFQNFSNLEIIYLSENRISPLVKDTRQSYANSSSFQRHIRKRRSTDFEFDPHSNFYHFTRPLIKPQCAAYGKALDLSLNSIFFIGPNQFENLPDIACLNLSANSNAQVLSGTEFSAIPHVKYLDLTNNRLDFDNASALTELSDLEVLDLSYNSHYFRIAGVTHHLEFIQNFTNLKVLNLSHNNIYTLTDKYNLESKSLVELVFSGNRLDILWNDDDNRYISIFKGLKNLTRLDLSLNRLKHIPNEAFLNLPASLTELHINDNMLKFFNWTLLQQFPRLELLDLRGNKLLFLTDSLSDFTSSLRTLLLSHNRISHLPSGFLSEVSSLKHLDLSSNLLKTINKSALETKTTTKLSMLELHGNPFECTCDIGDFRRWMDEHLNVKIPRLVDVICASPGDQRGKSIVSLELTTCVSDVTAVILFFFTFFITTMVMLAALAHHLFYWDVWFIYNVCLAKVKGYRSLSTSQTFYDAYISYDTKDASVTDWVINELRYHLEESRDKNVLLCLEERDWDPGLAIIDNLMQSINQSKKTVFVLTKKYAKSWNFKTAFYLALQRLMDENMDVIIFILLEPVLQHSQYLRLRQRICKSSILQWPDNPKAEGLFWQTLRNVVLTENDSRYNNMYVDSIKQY
Experimental: as §1, §2

human TLR9 = molecular target: T3, human TLR9 (Homo sapiens, UniProt Q9NR96); assay: TLR9 inhibition reporter assay (HEK-Blue SEAP); settings: HEK-Blue cells overexpressing human TLR9, stimulated with ODN2006 5 nM, 22 hour incubation
T3 construct: host or cells: HEK-Blue cells
T3 sequence (Q9NR96 26-1032): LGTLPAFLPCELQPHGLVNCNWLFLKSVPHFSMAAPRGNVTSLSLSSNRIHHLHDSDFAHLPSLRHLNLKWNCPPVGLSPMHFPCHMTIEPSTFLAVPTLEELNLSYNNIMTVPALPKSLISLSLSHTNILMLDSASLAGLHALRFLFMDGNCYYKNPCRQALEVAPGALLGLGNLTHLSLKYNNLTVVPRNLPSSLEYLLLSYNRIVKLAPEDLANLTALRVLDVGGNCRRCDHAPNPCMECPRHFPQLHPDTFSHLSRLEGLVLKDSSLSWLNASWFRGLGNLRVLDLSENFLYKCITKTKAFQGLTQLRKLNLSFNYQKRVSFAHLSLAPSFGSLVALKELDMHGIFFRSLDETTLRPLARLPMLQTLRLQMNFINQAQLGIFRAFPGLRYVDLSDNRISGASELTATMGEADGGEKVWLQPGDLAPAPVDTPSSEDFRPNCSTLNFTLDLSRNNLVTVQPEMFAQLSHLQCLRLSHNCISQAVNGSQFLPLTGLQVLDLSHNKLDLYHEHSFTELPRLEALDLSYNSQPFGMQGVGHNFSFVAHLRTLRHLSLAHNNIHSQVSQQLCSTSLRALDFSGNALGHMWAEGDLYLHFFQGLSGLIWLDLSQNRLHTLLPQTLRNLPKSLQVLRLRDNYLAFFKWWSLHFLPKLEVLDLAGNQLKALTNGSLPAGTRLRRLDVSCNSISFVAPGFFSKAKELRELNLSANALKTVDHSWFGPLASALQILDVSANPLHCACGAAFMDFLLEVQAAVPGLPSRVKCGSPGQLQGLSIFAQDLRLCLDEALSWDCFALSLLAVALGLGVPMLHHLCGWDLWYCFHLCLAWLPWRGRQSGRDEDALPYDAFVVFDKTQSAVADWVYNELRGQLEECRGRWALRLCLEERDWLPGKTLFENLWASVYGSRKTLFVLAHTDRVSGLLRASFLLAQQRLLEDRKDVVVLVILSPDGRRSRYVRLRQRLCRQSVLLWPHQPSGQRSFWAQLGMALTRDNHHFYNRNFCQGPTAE
Experimental: as §1, §2

Row | SMILES | IC50 (human TLR7) [nM] | IC50 (human TLR8) [nM] | IC50 (human TLR9) [µM]
1 | CCc1cc(-c2cc(C)c3ncnn3c2)cc2[nH]nc(OC3CCNCC3)c12 [Example 195, 6-(4-ethyl-3-(piperidin-4-yloxy)-1H-indazol-6-yl)-8-methyl-[1,2,4]triazolo[1,5-a]pyridine] | 3.7 | 0.8 | 6.18
2 | Cc1cc2c(C3CNC3)n[nH]c2cc1-c1cc(C)c2ncnn2c1 [Example 49, 6-(3-(azetidin-3-yl)-5-methyl-1H-indazol-6-yl)-8-methyl-[1,2,4]triazolo[1,5-a]pyridine] | 174 | 15.3 | 1.89
3 | COc1cc(-c2cc3[nH]nc(C4CCCNC4)c3cc2C)cn2ncnc12 (stereo not shown) [Example 45, 8-methoxy-6-(5-methyl-3-(piperidin-3-yl)-1H-indazol-6-yl)-[1,2,4]triazolo[1,5-a]pyridine] | 19.2 | 0.7 | ≥ 50
4 | Cc1cc(-c2cc(C)c3ncnn3c2)cc2[nH]nc(OC3CCC(NCC(=O)N(C)C)CC3)c12 (single isomer, unassigned) [Example 185, N,N-dimethyl-2-((4-((4-methyl-6-(8-methyl-[1,2,4]triazolo[1,5-a]pyridin-6-yl)-1H-indazol-3-yl)oxy)cyclohexyl)amino)acetamide] | 20.9 | 9.5 | 2.77
5 | CCc1cc2c(C3CCN(C4COC4)CC3)n[nH]c2cc1-c1cc(C)c2ncnn2c1 [Example 89, 6-(5-ethyl-3-(1-(oxetan-3-yl)piperidin-4-yl)-1H-indazol-6-yl)-8-methyl-[1,2,4]triazolo[1,5-a]pyridine] | 8.3 | 0.7 | 
6 | Cc1cc(-c2cc3[nH]nc(C4CCC(N5CCC6(COC6)C5)CC4)c3cc2C(C)C)cn2ncnc12 (single isomer, unassigned) [Example 159, 6-(4-(5-isopropyl-6-(8-methyl-[1,2,4]triazolo[1,5-a]pyridin-6-yl)-1H-indazol-3-yl)cyclohexyl)-2-oxa-6-azaspiro[3.4]octane] |  | 0.1 | 7.43
7 | Cc1cc(-c2cc3[nH]nc(C4CCN(CCC#N)CC4)c3cc2C(C)C)cn2ncnc12 [Example 121, 3-(4-(5-isopropyl-6-(8-methyl-[1,2,4]triazolo[1,5-a]pyridin-6-yl)-1H-indazol-3-yl)piperidin-1-yl)propanenitrile] | 1.9 | 0.1 | 
8 | Cc1cc(-c2cc3[nH]nc(C4CCC(N5CCC6(COC6)C5)CC4)c3cc2C(C)C)cn2ncnc12 (single isomer, unassigned) [Example 160, 6-(4-(5-isopropyl-6-(8-methyl-[1,2,4]triazolo[1,5-a]pyridin-6-yl)-1H-indazol-3-yl)cyclohexyl)-2-oxa-6-azaspiro[3.4]octane] |  | 0.4 | 7.3
9 | Cc1cc2cn[nH]c2cc1-c1cc(C)c2ncnn2c1 [Example 63, 8-methyl-6-(5-methyl-1H-indazol-6-yl)-[1,2,4]triazolo[1,5-a]pyridine] | 562 | 32.4 | 

The next lines start with the values.

Row | IC50 (human TLR7) [nM] | IC50 (human TLR8) [nM] | IC50 (human TLR9) [µM] | SMILES
10 | 1.8 | 1.8 | 1.19 | COc1cc(-c2cc(C)c3c(OC4CCC(N(C)C)CC4)n[nH]c3c2)cn2ncnc12 (single isomer, unassigned) [Example 184, 4-((6-(8-methoxy-[1,2,4]triazolo[1,5-a]pyridin-6-yl)-4-methyl-1H-indazol-3-yl)oxy)-N,N-dimethylcyclohexan-1-amine]
11 | 0.2 |  | 6.67 | Cc1cc(-c2cc3[nH]nc(C4CCC(N(C)C)CC4)c3cc2C(C)C)cn2ncnc12 (stereo not shown) [Example 114, 4-(5-isopropyl-6-(8-methyl-[1,2,4]triazolo[1,5-a]pyridin-6-yl)-1H-indazol-3-yl)-N,N-dimethylcyclohexan-1-amine]
12 | 0.3 |  | 11 | Cc1cc(-c2cc3[nH]nc(C4CCC(NCC(=O)N(C)C)CC4)c3cc2C(C)C)cn2ncnc12 (single isomer, unassigned) [Example 124, 2-((4-(5-isopropyl-6-(8-methyl-[1,2,4]triazolo[1,5-a]pyridin-6-yl)-1H-indazol-3-yl)cyclohexyl)amino)-N,N-dimethylacetamide]
13 | 0.5 |  | 13.3 | Cc1cc(-c2cc3[nH]nc(C4CCC(N5CCC(C)(O)C5)CC4)c3cc2C(C)C)cn2ncnc12 (single isomer, unassigned) [Example 165, 1-(4-(5-isopropyl-6-(8-methyl-[1,2,4]triazolo[1,5-a]pyridin-6-yl)-1H-indazol-3-yl)cyclohexyl)-3-methylpyrrolidin-3-ol]
